From patent US20200375987A1, “METALLO-BETA-LACTAMASE INHIBITORS AND METHODS OF USE THEREOF” (priority 2018, published 2020)

How the values were obtained:
[1] = test system: Klebsiella pneumoniae expressing VIM-1 (IHMA599644); test: Antibiotic potentiation activity: synergistic concentration (MITC95) with imipenem; type: cell-based; conditions: imipenem 1 μg/mL; lowest concentration inhibiting 95% of growth; 35° C., 22-24 hours
Method: (§1) The bacterial strains tested included the clinical strains Escherichia coli expressing NDM-1 (CLB30005, CLB30016), Serratia marcescens expressing IMP-1 (CL5741), and Klebsiella pneumoniae expressing VIM-1 (IHMA599644). Inhibitor activity was measured in the presence and absence of imipenem in a 384-well microplate.
(§2) The clinical strains CLB30016, CL5741 and IHMA599644 were grown on trypticase soy agar containing 5% sheep's blood. The bacteria on agar plates were incubated at 35° C. with humidity overnight. The following day, individual colonies from each clinical strain were picked and resuspended in 5 mL saline to attain an OD600 of 0.14, 0.11, 0.15 and 0.13, for CLB30016, CL5741 and IHMA599644, respectively. These were further diluted 1:100 into 1.1× CAMHB and used to inoculate the test wells as described below.
(§3) Imipenem in 10 mM 3-(N-morpholino)propanesulfonic acid (MOPS, pH 7) was stored in single use aliquots at −80° C. […] On the day of the assay, 4 μl of antibiotic was added to 45 μl of bacteria followed by 1 μl of test compound and mixed by pipetting and with an orbital shaker. The concentration of antibiotic used in the assay was 1 μg/mL. Microplates were covered and incubated at 35° C. for 22 hours to 24 hours. At the end of the incubation, absorbance was determined using a spectrophotometer. The synergistic concentration of MBLI was determined by identifying the lowest concentration of test compound in the presence of a given concentration of antibiotic that was required to inhibit 95% of the growth of the bacteria. The results for Examples 1-209 are reported in Table 1, expressed as the concentration of compound that potentiated the action of antibiotic (imipenem) affecting 95% inhibition of bacterial growth (MITC95).

[2] = test system: Serratia marcescens expressing IMP-1 (CL5741); test: as above; type: cell-based; conditions: imipenem 1 μg/mL; lowest concentration inhibiting 95% of growth; 35° C., 22-24 hours
Method: as §1, §2, §3

[3] = test system: Escherichia coli expressing NDM-1 (CLB30016); test: as above; type: cell-based; conditions: imipenem 1 μg/mL; lowest concentration inhibiting 95% of growth; 35° C., 22-24 hours
Method: as §1, §2, §3

[4] = molecular target: IMP-1 (Serratia marcescens, UniProt P52699); test: Enzyme activity: determination of IC50, fluorescence assay with CCF2-FA substrate (IMP-1); type: biochemical; conditions: 2 pM enzyme, 1.25 μM CCF2-FA, 2 hours at 25° C.; read-out: IMP1 IC50
Sequence of IMP-1 (P52699 19-246, looked up, species assumed): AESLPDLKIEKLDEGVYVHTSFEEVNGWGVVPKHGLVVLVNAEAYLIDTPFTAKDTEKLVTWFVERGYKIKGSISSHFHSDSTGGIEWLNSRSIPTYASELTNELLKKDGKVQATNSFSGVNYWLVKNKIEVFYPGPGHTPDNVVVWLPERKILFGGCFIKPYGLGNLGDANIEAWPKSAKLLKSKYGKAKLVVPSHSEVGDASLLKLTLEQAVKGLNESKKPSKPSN
Method: (§4) The Class B enzyme activities were measured in the presence of the test inhibitor in a fluorescence assay against a commercially available substrate consisting of a cephalosporin core linking 7-hydroxycoumarin to fluorescein (CCF2-FA). The enzyme (NDM-1, IMP-1 or VIM-1) and the substrate were diluted in 100 mM KH2PO4 buffer (pH 7) containing 0.005% Tween-20 and 10 μM ZnSO4. In the assay, the final concentration of enzyme was 1 pM, 2 pM and 30 pM for NDM-1, IMP-1 and VIM-1, respectively, and the final concentration of CCF2-FA was 1.25 μM. The test inhibitor was dissolved in dimethylsulfoxide and diluted 1:50 in the assay, resulting in a final concentration range of 20 μM to 0.00063 μM. In a 384-well microplate, the test inhibitor was incubated with the metallo-β-lactamase enzyme and the substrate for 2 hours at 25° C. Fluorescence at 460 nm following excitation at 405 nm was measured. The IC50 value was determined from semi-logarithmic plots of enzyme inhibition versus inhibitor concentration, with a curve generated using a 4-parameter fit.

[5] = molecular target: VIM-2 (Escherichia coli, UniProt Q5U7L7); test: Enzyme activity: determination of IC50 (VIM-2); type: biochemical; conditions: read-out: VIM2 IC50
[6] = molecular target: NDM-1 (Klebsiella pneumoniae, UniProt C7C422); test: Enzyme activity: determination of IC50, fluorescence assay with CCF2-FA substrate (NDM-1); type: biochemical; conditions: 1 pM enzyme, 1.25 μM CCF2-FA, 2 hours at 25° C.; read-out: NDM1 IC50
Sequence of NDM-1 (C7C422 29-270, looked up, species assumed): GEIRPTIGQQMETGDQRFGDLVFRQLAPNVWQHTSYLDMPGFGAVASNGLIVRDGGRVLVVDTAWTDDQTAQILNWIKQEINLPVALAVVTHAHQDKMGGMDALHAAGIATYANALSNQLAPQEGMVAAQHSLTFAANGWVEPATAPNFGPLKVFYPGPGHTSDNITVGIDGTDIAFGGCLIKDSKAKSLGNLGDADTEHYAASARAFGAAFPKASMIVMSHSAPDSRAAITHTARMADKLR
Method: as §4

[7] = test system: P. aeruginosa MB9798 (efflux WT, IMP-1); test: Efflux: concentration of MBL inhibitor restoring susceptibility to imipenem (MITC95), efflux+ strain; type: cell-based, Pseudomonas aeruginosa; conditions: imipenem at 2 μg/mL in the presence of a class A, C, D serine β-lactamase inhibitor closely related to relebactam
Text: (§5) In order to assess the contribution of efflux to lack of whole cell inhibition of metallo-beta-lactamase inhibitors of formula I, tool strains were constructed. The strain background is Pseudomonas aeruginosa PAO1. A wild-type (MB5919) and an isogenic strain in which multiple efflux pumps have been disrupted genetically were used. The MBL IMP-1, obtained from a clinical isolate was introduced into the strain pair by the following process:
(§6) Plasmid DNA (encoding IMP-1) was extracted from CL 5673 (IMP-1, P. aeruginosa clinical strain) by standard techniques. The plasmid DNA was transformed into parental MB5919 (oprD+, efflux+, inducible AmpC) and MB5890 (oprD+, efflux−, inducible AmpC) isogenic strains by electroporation. These transformed strains were plated onto cation-adjusted Muller-Hinton agar plates containing ceftazidime at 32 μg/mL (MB5919) and 16 μg/mL (MB5890) to select for those cells in which the IMP-1-expressing plasmid was introduced successfully, resulting in resistance to ceftazidime. Agarose-gel electrophoresis of PCR product for IMP-1 from the successful transformants was used to compare to control and to the original strain from which the plasmid was obtained, confirming transfer of the IMP-1 gene (data not shown).
(§7) The strain set was then used as a pair to determine the effect of metallo-β-lactamase inhibitors of Formula Ion the MIC of imipenem and/or ceftazidime. A fixed concentration of antibiotic is included in standard microbroth MIC tests, usually at the CLSI breakpoint concentration. A fixed amount of a class A/C beta-lactamase inhibitor is also included to inhibit the resident Pseudomonas AmpC enzyme. A serial titration of the metallo-β-lactamase inhibitor was included and the concentration of metallo-β-lactamase inhibitor which restores susceptibility of the strain to the included antibiotic was recorded. That concentration of metallo-β-lactamase inhibitor was then compared between the two strains to determine the fold difference between the efflux+(MB9798) and efflux−(MB9799) strains, which indicates n the extent to which the MBLi is subject to efflux.

[8] = test system: P. aeruginosa MB9799 (efflux mutant, IMP-1); test: Efflux: concentration of MBL inhibitor restoring susceptibility to imipenem (MITC95), efflux− strain; type: cell-based, Pseudomonas aeruginosa; conditions: imipenem at 2 μg/mL in the presence of a class A, C, D serine β-lactamase inhibitor closely related to relebactam
Text: as §5, §6, §7

[9] = molecular target: VIM-1 (Pseudomonas aeruginosa, UniProt A0A0F7KYQ8); test: Enzyme activity: determination of IC50, fluorescence assay with CCF2-FA substrate (VIM-1); type: biochemical; conditions: 30 pM enzyme, 1.25 μM CCF2-FA, 2 hours at 25° C.; read-out: VIM1 IC50
Method: as §4

Compound	IHMA599644 K.pneumoniae MITC95 uM VIM [1]	CL5741 S.marcescens MITC95 uM IMP [2]	CLB30016 E.coli MITC95 NDM [3]	IC50 [4]	IC50 [5]	IC50 [6]	MB9798 MITC95 P. aeruginosa Efflux WT [7]	MB9799 MITC95 P. aeruginosa Efflux Mutant [8]	IC50 [9]
NS(=O)(=O)c1c(S(=O)(=O)N[C@@H]2CCNC2)ccc(N2CCn3ncnc3C2)c1-c1nn[nH]n1 [Example 1, (R)-4-(5,6-dihydro-[1,2,4]triazolo[1,5-a]pyrazin-7(8H)-yl)-N′-(pyrrolidin-3-yl)-3-(2H-tetrazol-5-yl)benzene-1,2-disulfonamide]	6.25 µM	1.56 µM	3.13 µM	4.03 nM	0.99 nM	1.57 nM	6.25 µM	1.56 µM	0.29 nM
NS(=O)(=O)c1c(S(=O)(=O)N[C@@H]2CCNC2)ccc(N2CCn3cncc3C2)c1-c1nn[nH]n1 [Example 2, (R)-4-(5,6-dihydroimidazo[1,5-a]pyrazin-7(8H)-yl)-N^1-(pyrrolidin-3-yl)-3-(2H-tetrazol-5-yl)benzene-1,2-disulfonamide]	1.56 µM	0.78 µM	0.20 µM	2.01 nM	0.68 nM	0.3 nM	3.13 µM	0.78 µM	0.16 nM
NC[C@@H](O)CNS(=O)(=O)c1ccc(N2CCc3nc(N)[nH]c3C2)c(-c2nn[nH]n2)c1S(N)(=O)=O [Example 3, (R)—N^1-(3-amino-2-hydroxypropyl)-4-(2-amino-3,4,6,7-tetrahydro-5H-imidazo[4,5-c]pyridin-5-yl)-3-(2H-tetrazol-5-yl)benzene-1,2-disulfonamide]	6.25 µM	3.13 µM	0.78 µM	5.72 nM	72.8 nM	2.23 nM	6.25 µM	1.56 µM	22.6 nM
NS(=O)(=O)c1c(S(=O)(=O)N[C@@H]2CCNC2)ccc(N2CCn3nc(C(F)(F)F)nc3C2)c1-c1nn[nH]n1 [Example 4, (R)—N^1-(pyrrolidin-3-yl)-3-(2H-tetrazol-5-yl)-4-(2-(trifluoromethyl)-5,6-dihydro-[1,2,4]triazolo[1,5-a]pyrazin-7(8H)-yl)benzene-1,2-disulfonamide]	6.25 µM	6.25 µM	3.13 µM	2.18 nM	0.48 nM	2.25 nM	25.00 µM	3.13 µM	0.35 nM
CCOC(=O)c1cn2c(n1)N(c1ccc(S(=O)(=O)N[C@@H]3CCNC3)c(S(N)(=O)=O)c1-c1nn[nH]n1)CCC2 [Example 5, ethyl (R)-8-(4-(N-(pyrrolidin-3-yl)sulfamoyl)-3-sulfamoyl-2-(2H-tetrazol-5-yl)phenyl)-5,6,7,8-tetrahydroimidazo[1,2-a]pyrimidine-2-carboxylate]	12.50 µM	6.25 µM	12.50 µM	0.96 nM	0.55 nM	0.04 nM	6.25 µM	3.13 µM	0.12 nM
NS(=O)(=O)c1c(S(=O)(=O)N[C@@H]2CCNC2)ccc(N2CCCn3cnnc32)c1-c1nn[nH]n1 [Example 6, (R)-4-(6,7-dihydro-[1,2,4]triazolo[4,3-a]pyrimidin-8(5H)-yl)-N^1-(pyrrolidin-3-yl)-3-(2H-tetrazol-5-yl)benzene-1,2-disulfonamide]	6.25 µM	3.13 µM	0.78 µM	6.8 nM	1.13 nM	0.72 nM	3.13 µM	3.13 µM	0.24 nM
NS(=O)(=O)c1c(S(=O)(=O)N[C@@H]2CCNC2)ccc(N2CCCn3nccc32)c1-c1nn[nH]n1 [Example 7, (R)-4-(6,7-dihydropyrazolo[1,5-a]pyrimidin-4(5H)-yl)-N^1-(pyrrolidin-3-yl)-3-(2H-tetrazol-5-yl)benzene-1,2-disulfonamide]	6.25 µM	3.13 µM	6.25 µM	2.81 nM	0.66 nM	0.14 nM	3.13 µM	1.56 µM	0.13 nM
NS(=O)(=O)c1c(S(=O)(=O)N[C@@H]2CCNC2)ccc(N2CCCn3ncnc32)c1-c1nnn[nH]1 [Example 8, (R)-4-(6,7-dihydro-[1,2,4]triazolo[1,5-a]pyrimidin-4(5H)-yl)-N1-(pyrrolidin-3-yl)-3-(1H-tetrazol-5-yl)benzene-1,2-disulfonamide]	12.50 µM	6.25 µM	3.13 µM	6.63 nM	1.09 nM	0.47 nM	3.13 µM	6.25 µM	0.2 nM
NS(=O)(=O)c1c(S(=O)(=O)N[C@@H]2CCNC2)ccc(N2CCn3ccnc3C2)c1-c1nnn[nH]1 [Example 9, (R)-4-(5,6-dihydroimidazo[1,2-a]pyrazin-7(8H)-yl)-N1-(pyrrolidin-3-yl)-3-(1H-tetrazol-5-yl)benzene-12-disulfonamide]	1.56 µM	0.20 µM	0.39 µM	2.17 nM	0.49 nM	0.48 nM	1.56 µM	0.78 µM	0.1 nM
